Assays:
[1] = tested on: rice line PL1214418M2-73009 and new lines that inherited the ACCase tolerance; experiment: Trial of recovery of ACCase tolerance in the combined line; type: in vivo, Oryza sativa; conditions: 0.5×, 1×, 2×, 4× of label rate
Protocol: Another trial was conducted to confirm recovery of the ACCase inhibitor resistance from the RTA1 mutation as in the line ML0831265-01493. In this trial the new line PL1214418-73009 with combined HPPD and ACCase tolerance was planted in a row along with other various lines including the original donor line ML0831265-01493 (planted in a plot), ML0831266-03093, P1003, R0146 parent line for ACCase tolerance. The lines were all tested with the ACCase herbicides fluazifop at 0.5×, 1×, 2×, and 4× multiples of the label application rate (210 gmai/ha) and quizalofop at 0.5×, 1×, 2×, and 4× multiples of the label application rate (77 gmai/ha).

[2] = tested on: rice line RTA1+RTA2 (RL1225468, double homozygous stack); experiment: Field trait tolerance trial, FOP herbicides applied sequentially at 2-leaf and pre-flood
Text: (§1) FIG. 20A-FIG. 20D showing % Injury response data and plot pictures. Material tested included ACCase-inhibitor resistant combined ACCase lines (RTA1+RTA2), the RTA1 and the RTA2 singles and the stack RTA1+HPPDi+HPPDni. Two applications (at the 2 leaf and pre-flood stage) used the same rate for both applications. […] (all images taken 4 weeks post preflood app), FIG. 20D Plat order (left to right) RTA1, RTA2, RTA1+RTA2, RTA1+HPPD i+HPPDni, P1003, R0146.
(§2) FIG. 21A-FIG. 21E, show plot pictures and % Injury response for ACCase lines RTA1, RTA2, and the stacks RTA1+RTA2 as well as the stack […], when challenged by increasing doses of the main FOP herbicides. […] FIG. 21A untreated control, FIG. 21B 4× Quizalofop, FIG. 21C 4× Fluazifop, FIG. 21D 4× Propaquizafop. 4 weeks post preflood application. Plot order (left to right) G2096S, RTA2, G2096S+RTA2, G2096S+HPPD, P1003, R0146. FIG. 21E graphical representation.
(§3) Evaluation of the novel herbicide resistance genes, subject of this application, was conducted with a range of suitable herbicide doses that cover application rates typically used for rice farming operations while also taking into consideration possible deviations from the manufacturer-recommended doses. Considering 1×, the recommended manufacturers or best practice recommended dose, the most frequently evaluated additional doses are 2× and 4× with some experiments including other values.

[3] = tested on: common weeds in rice (grass weeds such as barnyard grass); experiment: Weed control in rice crops; type: in vivo; conditions: in vivo
Protocol: FIGS. 5A and 5B are photographs of results of trait tolerance trials; weed control by mesotrione herbicide applied pre-planting was evaluated; the plots were planted with a hybrid of the HPPD tolerant line ML0831266-03093; just before planting, the plot on the right FIG. 5B received an application of mesotrione at 210 gmai/ha; the plot on the left FIG. 5A had no herbicide applied either pre-plant or post-emergence; pictures were taken four weeks after planting showing differences in weed appearance.
While testing the tolerant lines, the parent lines were also tested to serve as controls and as an indication of commercial potential as a red rice/wild weedy rice control strategy.
Rice is tolerant to certain ACCase inhibitor herbicides, for example cyhalofop is registered for use in rice. However other ACCase herbicides kill or severely injure rice to varying degrees. […] The applied rates of both types of herbicides giving the weed control are well within the tolerance level of the respective ACCase and HPPD tolerant lines including the combined lines carrying tolerance to both HPPD and ACCase herbicides.

[4] = tested on: rice line ML0831265-02283 (RTA2); experiment: Field validation of tolerance to ACCase herbicide, percent injury 21 days after application; type: in vivo, Oryza sativa; conditions: 2× and 4× of labeled rate (77 gmai/ha), four leaf stage
Text: After screening a large mutant population, the line ML0831265-02283 also survived application of the ACCase herbicide quizalofop. The line was increased to obtain sufficient seed for larger trials to evaluate its tolerance to ACCase herbicides. The tolerance to ACCase herbicides in line ML0831265-02283 was validated by planting in the field plots (5 feet by 10 feet) of the line, the non-mutant parent line R0146, a second non-mutant line P1003, and the ACCase tolerant line ML0831265-01493. The ACCase herbicide quizalofop was applied at the four leaf stage at 0.5×, 1×, 2×, and 4× multiples of the labeled rate (77 gmai/ha). Twenty one days after the herbicide was applied the plots were evaluated for percent injury caused to the rice based on control plots that had no herbicide application (FIG. 6). The data confirms the tolerance of line ML0831265-02283 and it may even carry more tolerance than line ML0831265-01493 as shown by less injury at the 2× and 4× rates of quizalofop.

[5] = tested on: mutant plants carrying RTA2 (R0146 X ML-083126502283F2); experiment: MutMap F2 population herbicide response scoring; type: in vivo, Oryza sativa; conditions: 3 week old plants, scored 21 days after spray
Text: A MutMap population was F2 plants from a cross between rice line R0146 X ML-083126502283F2. Pictures were taken 16 days post herbicide spray.
The herbicide Quizalofop was sprayed on the test fields. […] The plants were scored first at 16 days after the herbicide spray and then at 21 days after herbicide spray.
Mutant plants carrying the ‘unknown mutation RTA2’ were resistant. 3 week old plants were sprayed with Quizalofop and the herbicide response was scored 21 days after the spray. Susceptible symptoms were already observed 7 days after the Quizalofop spray, but scoring was done at 21 days. […] Few plants scored 3 (little damage on leaves or new leaf growth observed, and most likely plants will survive) or score 5 (half of the canopy is damaged and hard to predict whether the plants will survive or not), or score 7 (more damage on leaves, plants will not survive).

[6] = tested on: rice line RTA1 (ML0831265-01493, G2096S); experiment: Field trait tolerance trial, FOP herbicides applied sequentially at 2-leaf and pre-flood; type: in vivo, Oryza sativa; conditions: for injury rates: RTA1, 2× application rates
Text: as §1, §2
Yield response after sequential 2-leaf and pre-flood quizalofop application.
as §3

[7] = tested on: rice lines RTA1, RTA2, RTA1+RTA2, RTA1+HPPD; experiment: Field trial with increasing doses of FOP herbicides, all trait combinations; type: in vivo, Oryza sativa
Text: 4 weeks post preflood application. […] FIG. 21E graphical representation.

Row | Structure (SMILES) | tolerance compared with donor line ML0831265-01493 [1] | injury ([2]; RTA1+RTA2, 4× label rate, 4 weeks post preflood application) | injury ([2]; RTA1+RTA2, high application rates, FIG. 21 trial) | maximum dose tolerated with no phytotoxicity ([2]; double homozygous RTA1-RTA2, 2-leaf stage) [oz/acre] | control of common grass weeds, such as barnyard grass, in rice [3] | percent injury compared with line ML0831265-01493 [4] | herbicide response [5] | yield ([6]; RTA1, 1× and 2× application rates) | injury rates [6] [%] | injury ([2]; RTA1+RTA2, 4×, FIG. 21 trial) | usability on the crop ([7]; rates of 2× or less, any trait combination containing RTA1) | rates of injury compared with the other FOP herbicides ([6]; RTA1) | rates of injury compared with other FOP herbicides ([7]; across all trait combinations)
1 | CC(Oc1ccc(Oc2cnc3cc(Cl)ccc3n2)cc1)C(=O)O (stereo not shown) [Quizalofop] | equivalent tolerance | no injury | minimal | 80 | good control | less injury | resistant | good yield retention | ~40 |  |  |  | 
2 | CC(Oc1ccc(Oc2ccc(C(F)(F)F)cn2)cc1)C(=O)O (stereo not shown) [Fluazifop] | equivalent tolerance |  |  |  | good control |  |  |  |  | minimal injury | viable | much lower than either of the other FOP herbicides | 
3 | CC(C)=NOCCOC(=O)[C@@H](C)Oc1ccc(Oc2cnc3cc(Cl)ccc3n2)cc1 [Propaquizafop] |  |  |  |  |  |  |  |  | ~40 |  |  |  | highest rates of injury
